The source of these data is patent publication US6495576B2, “Aminal diones as potassium channel openers” (Abbott Laboratories, priority 2001, dated 2002).

For assay [1], the system named is primary cultured guinea-pig urinary bladder (GPB) cells. Briefly: Membrane hyperpolarization (MHP) assay, DiBAC(4)3 fluorescence on FLIPR. In kind it is cell-based. The note with it: for Maximal Response (%P1075): maximal steady-state hyperpolarization, normalized to response with 10 μM P1075 (100%). The method, then:
Compounds were evaluated for potassium channel opening activity using primary cultured guinea-pig urinary bladder (GPB) cells.
For the preparation of urinary bladder smooth muscle cells, urinary bladders were removed from male guinea-pigs (Hartley, Charles River, Wilmington, Mass.) weighing 300-400 g and placed in ice-cold Ca^2+-free Krebs solution (composition, mM: KCl, 2.7, KH2PO4, 1.5; NaCl, 75, Na2HPO4, 9.6; Na2HPO4. 7H2O, 8; MgSO4, 2; glucose, 5; HEPES, 10; pH 7.4). Cells were isolated by enzymatic dissociation as previously described with minor modifications (Klockner and Isenberg, Pflugers Arch. (1985), 405, 329-339), hereby incorporated by reference. The bladder was cut into small sections and incubated in 5 mL of the Kreb's solution containing 1 mg/mL collagenase (Sigma, St. Louis, Mo.) and 0.2 mg/mL pronase (Calbiochem, La Jolla, Calif.) with continuous stirring in a cell incubator for 30 minutes. The mixture was then centrifuged at 1300×g for 5 minutes, and the pellet resuspended in Dulbecco's PBS (GIBCO, Gaithersburg, Md.) and recentrifuged to remove residual enzyme. The cell pellet was resuspended in 5 mL growth media (composition: Dulbecco's modified Eagle's medium supplemented with 10% fetal bovine serum, 100 units/mL penicillin, 100 units/mL streptomycin and […] amphotericin B) and further dissociated by pipetting the suspension through a flame-polished Pasteur pipette and passing it through a polypropylene mesh membrane (Spectrum, Houston, Tex.). The cell density was adjusted to 100,000 cells/mL by resuspension in growth media Cells were plated in clear-bottomed black 96-well plates (Packard) for membrane potential studies at a density of 20,000 cells/well and maintained in a cell incubator with 90% air: 10% CO2 until confluent. Cells were confirmed to be of smooth muscle type by cytoskeletal staining using a monoclonal mouse anti human-α-smooth muscle actin (Biomeda, Foster City, Calif.).
Functional activity at potassium channels was measured by evaluating changes in membrane potential using the bis-oxonol dye DiBAC(4)3 (Molecular Probes) in a 96-well cell-based kinetic assay system, Fluorescent Imaging Plate Reader (FLIPR) (K. S. Schroeder et al., J. Biomed. Screen., v. 1 pp. 75-81 (1996)), hereby incorporated by reference. DiBAC(4)3 is an anionic potentiometric probe which partitions between cells and extracellular solution in a membrane potential-dependent manner. With increasing membrane potential (for example, K^+ depolarization), the probe further partitions into the cell; this is measured as an increase in fluorescence due to dye interaction with intracellular lipids and proteins. Conversely, decreasing membrane potential (hyperpolarization by potassium channel openers) evokes a decrease in fluorescence.
Confluent guinea-pig urinary bladder cells cultured in black clear-bottomed 96-well plates were rinsed twice with […] assay buffer (composition, mM: HEPES, 20; NaCl, 120; KCl, 2; CaCl2, 2, MgCl2, 1, glucose, 5; pH 7.4 at 25° C.) containing 5 μM DiBAC(4)3 and incubated with […] of the buffer in a cell incubator for 30 minutes at 37° C. to ensure dye distribution across the membrane. After recording the baseline fluorescence for 5 minutes, the reference or test compounds, prepared at 10 times the concentration in the assay buffer, were added directly to the wells. Changes in fluorescence were monitored for an additional 25 minutes. Hyperpolarization responses were corrected for any background noise and were normalized to the response observed with 10 μM of the reference compound P1075 (assigned as 100%), a potent opener of smooth muscle KATP channels (Quast et al., Mol. Phanmacol., v. 43 pp. 474-481 (1993)).
Routinely, five concentrations of P1075 or test compounds (log or half-log dilutions) were evaluated and the maximal steady-state hyperpolarization values (expressed as % relative to P1075) plotted as a function of concentration. […]

The test system of assay [2] is Landrace pig bladder strips. Briefly: Functional potassium channel opening activity in isolated, field-stimulated bladder strips. The following applies: for Index: ED50 for P1075 divided by ED50 for test agonist in a given tissue, averaged; for EC50: amount causing 50% of the agent's maximal response, field stimulation 0.05 Hz, 0.5 ms, 20 volts, read-out: ED50 (the source's name); for Emax: maximal efficacy on stimulated twitch, relative to P1075. As for the experimental part:
Compound were evaluated for functional potassium channel opening activity using tissue strips obtained from Landrace pig bladders.
Landrace pig bladders were obtained from female Landrace pigs of 9-30 kg. Landrace pig were euthanized with an intraperitoneal injection of pentobarbital solution, Somlethal ®, J. A. Webster Inc. Sterling Mass. The entire bladder was removed and immediately placed into Krebs Ringer bicarbonate solution (composition, mM: NaCl, 120; NaHCO3, 20; dextrose, 11; KCl, 4.7; CaCl2, 2.5; MgSO4, 1.5; KH2PO4, 1.2; K2EDTA, 0.01, equilibrated with 5% CO2/95% O2 pH 7.4 at 37° C.). Propranolol (0.004 mM) was included in all of the assays to block β-adrenoceptors. The trigonal and dome portions were discarded. Strips 3-5 mm wide and 20 mm long were prepared from the remaining tissue cut in a circular fashion. The mucosal layer was removed. One end was fixed to a stationary glass rod and the other to a Grass FT03 transducer at a basal preload of 1.0 gram. Two parallel platinum electrodes were included in the stationary glass rod to provide field stimulation of 0.05 Hz, 0.5 milli-seconds at 20 volts. This low frequency stimulation produced a stable twitch response of 100-500 centigrams. Tissues were allowed to equilibrate for at least 60 minutes and primed with 80 mM KCl. A control concentration response curve (cumulative) was generated for each tissue using the potassium channel opener P1075 as the control agonist. […] After a 60 minute rinsing period, a concentration response curve (cumulative) was generated for the test agonist in the same fashion as that used for control agonist P1075. The maximal efficacy of each compound (expressed as % relative to P1075) is reported. The amount of agent necessary to cause 50% of the agent's maximal response (ED50) was calculated using “ALLFIT” (DeLean et al., Am. J. Physiol., 235, E97 (1980)), hereby incorporated by reference. Agonist potencies were also expressed as an index relative to P1075. The index was calculated by dividing the ED50 for P1075 by the ED50 for the test agonist in a given tissue. Each tissue was used for only one test agonist, and the indices obtained from each tissue were averaged to provide an average index of potency.

Like-named read-outs stand apart in the source and are kept apart here.

One may read the Emax as the maximal effect, on the per cent scale that the assay sets. For `Cc1cccc(C(=O)NC(Nc2c(Nc3cccnc3)c(=O)c2=O)C(C)(C)Cc2ccccc2)c1` (stereo not drawn) [Example 60, N-(1-{[3,4-Dioxo-2-(3-pyridinylamino)-1-cyclobuten-1-yl]amino}-2,2-dimethyl-3-phenylpropyl)-3-methylbenzamide], the EC50 in assay [1] (Cavia porcellus, concentration eliciting 50% of the maximal response of the test sample) worked out at 93 nM. Moreover, in assay [1], the “Maximal Response (%P1075)” value was 83 %P1075. Moreover, the Index in assay [2] was found to be 0.87. In assay [2] (Sus scrofa), the EC50 amounted to 680 nM and the Emax was found to be 88%.
Consider `CCC(CC)(CCC#N)C(NC(=O)c1ccc(Cl)cc1)Nc1c(Nc2cccnc2)c(=O)c1=O` (stereo not drawn) [Example 19, 4-Chloro-N-(4-cyano-1-{[3,4-dioxo-2-(3-pyridinylamino)-1-cyclobuten-1-yl]amino}-2,2-diethylbutyl)benzamide], for which the “Maximal Response (%P1075)” value in assay [1] is below 20 %P1075.
As to `C=CCOCC(CC)(COCC=C)C(NC(=O)c1ccc(Cl)cc1)Nc1c(Nc2cccnc2)c(=O)c1=O` (stereo not drawn) [Example 20, N-(2,2-Bis[(allyloxy)methyl]-1-{[3,4-dioxo-2-(3-pyridinylamino)-1-cyclobuten-1-yl]amino}butyl)-4-chlorobenzamide], the “Maximal Response (%P1075)” value in assay [1] came to 98 %P1075.
For `CC(C)(C)C(NC(=O)c1ccc(Cl)cc1)Nc1c(Nc2cccnc2)c(=O)c1=O` (stereo not drawn) [Example 2, 4-Chloro-N-(1-{[3,4-dioxo-2-(3-pyridinylamino)-1-cyclobuten-1-yl]amino}-2,2-dimethylpropyl)benzamide], in assay [1], the “Maximal Response (%P1075)” value was 108 %P1075. In assay [2], this molecule returned an Index of 0.047.
In the case of `C=CCC(C)(C)C(NC(=O)c1ccc(Cl)cc1)Nc1c(Nc2cccnc2)c(=O)c1=O` (stereo not drawn) [Example 17, 4-Chloro-N-(-1-{[3,4-dioxo-2-(3-pyridinylamino)-1-cyclobuten-1-yl]amino}-2,2-dimethyl-4-pentenyl)benzamide], the “Maximal Response (%P1075)” value in assay [1] is given as 96 %P1075. The Index in assay [2] turned out to be 0.028.
Turning to `Cc1ccc(C(=O)NC(Nc2c(Nc3cccnc3)c(=O)c2=O)C(C)(C)C)cc1` (stereo not drawn) [Example 1, N-(1-{[3,4-Dioxo-2-(3-pyridinylamino)-1-cyclobuten-1-yl]amino}-2,2-dimethylpropyl)-4-methylbenzamide], the “Maximal Response (%P1075)” value in assay [1] worked out at 91 %P1075. Besides, in assay [2], the Index is 0.008.
For `CC(C)(Cc1ccccc1)C(NC(=O)c1cc(F)cc(F)c1)Nc1c(Nc2cccnc2)c(=O)c1=O` (stereo not drawn) [Example 55, N-(1-{[3,4-Dioxo-2-(3-pyridinylamino)-1-cyclobuten-1-yl]amino}-2,2-dimethyl-3-phenylpropyl)-3,5-difluorobenzamide], the Index in assay [2] was found to be 0.053. Moreover, in assay [2] (Sus scrofa), the EC50 was 2300 nM and the Emax is 75%.
Take `CC(C)(C)C(NC(=O)c1ccc(Cl)cc1)Nc1c(Nc2cccnc2Cl)c(=O)c1=O` (stereo not drawn) [Example 29, 4-Chloro-N-[1-({2-[(2-chloro-3-pyridinyl)amino]-3,4-dioxo-1-cyclobuten-1-yl}amino)-2,2-dimethylpropyl]benzamide]: the Index in assay [2] is recorded as 0.028.
In assay [2], `CC(C)(C)C(NC(=O)c1cccc(Br)c1)Nc1c(Nc2cccnc2Cl)c(=O)c1=O` (stereo not drawn) [Example 67, 3-Bromo-N-[1-({2-[(2-chloropyridin-3-yl)amino]-3,4-dioxo-1-cyclobuten-1-yl}amino)-2,2-dimethylpropyl]benzamide] displayed an Index of 0.029. In assay [2] (Sus scrofa), the EC50 is 2500 nM and the Emax was 72%.
In assay [2], `CC(C)(C)C(NC(=O)CCc1ccccc1)Nc1c(Nc2cccnc2)c(=O)c1=O` (stereo not drawn) [Example 36, N-(1-{[3,4-Dioxo-2-(3-pyridinylamino)-1-cyclobuten-1-yl]amino}-2,2-dimethylpropyl)-3-phenylpropionamide] came in with an Index of 0.063.
Turning to `CC(C)(C)[C@H](NC(=O)c1cc(Cl)cc(Cl)c1)Nc1c(Nc2cccnc2Cl)c(=O)c1=O` [Example 108, (+) 3,5-Dichloro-N-[(1S)-1-({2-[(2-chloropyridin-3-yl)amino]-3,4-dioxocyclobut-1-en-1-yl}amino)-2,2-dimethylpropyl]benzamide], the Index in assay [2] is recorded as 0.033. Also, in assay [2] (Sus scrofa), the EC50 is 4200 nM and the Emax came to 89%.
Take `CC(C)(Cc1ccccc1)C(NC(=O)c1cccc(Cl)c1)Nc1c(Nc2cccnc2)c(=O)c1=O` (stereo not drawn) [Example 59, 3-Chloro-N-(1-{[3,4-dioxo-2-(3-pyridinylamino)-1-cyclobuten-1-yl]amino}-2,2-dimethyl-3-phenylpropyl)benzamide]: the Index in assay [2] is 0.062. Also, in assay [2] (Sus scrofa), the EC50 is 1700 nM and the Emax was found to be 57%.
For `Cc1cccc(C(=O)NC(Nc2c(Nc3cccnc3)c(=O)c2=O)C(C)(C)C)c1` (stereo not drawn) [Example 6, N-(1-{[3,4-Dioxo-2-(3-pyridinylamino)-1-cyclobuten-1-yl]amino}-2,2-dimethylpropyl)-3-methylbenzamide], the Index in assay [2] is recorded as 0.067.
In turn, `CC(C)(C)C(NC(=O)c1ccc(I)cc1)Nc1c(Nc2cccnc2)c(=O)c1=O` (stereo not drawn) [Example 3, N-(1-{[3,4-Dioxo-2-(3-pyridinylamino)-1-cyclobuten-1-yl]amino}-2,2-dimethylpropyl)-4-iodobenzamide] displayed an Index in assay [2] of 0.062.
As to `CC(C)(C)C(NC(=O)c1cccc(Cl)c1)Nc1c(Nc2cccnc2)c(=O)c1=O` (single isomer, unassigned; (-)) [Example 57, (−) 3-Chloro-N-(1-{[3,4-dioxo-2-(3-pyridinylamino)-1-cyclobuten-1-yl]amino}-2,2-dimethylpropyl)benzamide], in assay [2], the Index is recorded as 0.015 and the EC50 worked out at 4000 nM. In assay [2] (Sus scrofa), the Emax amounted to 81%.
`CC(C)(C)C(NC(=O)c1cc(F)cc(F)c1)Nc1c(Nc2cccnc2)c(=O)c1=O` (stereo not drawn) [Example 16, N-(1-{[3,4-Dioxo-2-(3-pyridinylamino)-1-cyclobuten-1-yl]amino}-2,2-dimethylpropyl)-3,5-difluorobenzamide]: in assay [2], the Index worked out at 0.046.
